The results in this text go back to patent US20210106703A1, “RADIOIMMUNOCONJUGATES IN COMBINATION WITH OTHER DRUGS AS TREATMENT AGAINST NHL” (Nordic Nanovector ASA, priority 2017, published 2021).

Experiment [1] relates to RIVA cells. Kind of experiment: Real Time Glo viability assay, Betalutin and cell cycle inhibitors (Example 2). The format is cell-based, human. Particulars: RIVA; for viability at 0.1 µM / viability at 1 µM: Homo sapiens, read-out: Growth inhibition (signal treated/control; 1 = no change). How it is done: (§1) Cells were split twice a week 1:3-1:5 depending on cell density. […] Real Time Glo was purchased from Promega. 384 well plates were purchased from Greiner Bio-One.
(§2) Cells were treated for 18-20 h with Betalutin at a final concentration of 1 μg/ml and 2 μg/ml in 6-well cell culture plates with shaking. After treatment, PBS was added to the cells, and the cells pelleted. Cells were first resuspended in 1 ml PBS, then washed twice in PBS and finally diluted in growth medium at the desired concentration. All cell lines were treated at a cell concentration of 2.5*10^6 cells/ml.
(§3) Regardless of cell number the culturing volume was 25 μl. For Real Time Glo, the Cell Viability Substrate and NanoLuc® Enzyme were diluted 1:500 in growth medium, and 25 μL of diluted reagents added to each well. All reagents were equilibrated to 37° C. Cells were incubated with the reaction mix for 1 h at 37° C. before the first measurement of luminescence. Measurements were repeated as often as required within 72 h after adding the reagents. Digitonin was added to cells at 200 μg/ml to record background luminescence of dead cells. A Tecan SPARK 10M plate reader was used to measure luminescence, with an integration time set to 1 sec.
(§4) Growth inhibition was calculated by dividing the luminescence signal of the treated cells by the luminescence signal of the control cells for each day of measurement after start of treatment [Table 1].
(§5) To evaluate effects of the drugs alone [(−)Betalutin] and their combination with Betalutin [(+)Betalutin], we calculated the Z-score for each sample (ZdrugX=1-(+)BetalutindrugX/(−)BetalutindrugX), where (+)BetalutindrugX and (−) BetalutindrugX are the measured luminescence intensity values for drug X in presence and absence of Betalutin, respectively. The calculation of Z-score values separately for each plate enabled comparison of results across plates, despite variations between the plates in overall signal intensity.

In experiment [2] the test system is U2932 cells. Described as above. Format: cell-based, human. Particulars: for viability at 0.1 µM / viability at 1 µM: Homo sapiens, read-out: Growth inhibition (signal treated/control; 1 = no change); for viability at 0.1 µM: U2932, U2932, drug 100 nM; for viability at 1 µM: U2932, U2932, drug 1 μM. How it is done: as §1, §2, §3, §4, §5
Experiment [3] has as its system OCI-Ly8 tumor xenografts. Kind of experiment: Treatment of mice with tumor xenografts. Particulars: 250 MBq/kg.
In experiment [4] the test system is DOHH2 cells. Kind of experiment: Cell cycle analysis (PI, Muse flow cytometer). Format: cell-based, human. Particulars: DOHH2, 6 MBq/mL, at 24 h. How it is done: (§6) Cells were harvested at day 0, 2 h, 18 h, 1 d, 2 d, 3 d, of RIT then fixed in 70% ethanol at −20° C. for 3 hours and stained with Cell Cycle kit (with PI) reagent from Merck Millipore in the dark for 30 min at room temperature before analysis using a Muse® flow cytometer. The percentage of cells in G0/G1, S and G2/M phases was then calculated (mean of three experiments in triplicate).
(§7) At different times after start of incubation, proteins were extracted to measure the CDK1 phosphorylation levels, in parallel, proliferation was determined and at 18 h and 24 h after start of incubation, the percentage of cells in G2/M was assessed (experiments were performed three time except the cell cycle analysis).
(§8) Cells were harvested at 0 h, 2 h, 18 h, 1 d, 2 d, 3 d, and fixed in 70% ethanol at −20° C. for at least 3 h. After staining with the Muse® Cell Cycle Assay Kit (Merck Millipore, Molsheim, France) using propidium iodide in the dark at room temperature for 30 min, cell cycle distribution was analyzed using a Muse® flow cytometer. The percentage of cells in the G0/G1, S and G2/M was calculated (mean of three experiments in triplicate) and the effect of WEE-1 and MYT-1 kinase inhibitors on the cell cycle was assessed.
A general note: A flow cytometer gives signals particle by particle.

The subject of experiment [5] is Ramos cells. Kind of experiment: Cell cycle analysis (PI, Muse flow cytometer). Format: cell-based, human. The note with it: 6 MBq/mL, at 24 h. As to the method: as §6, §7, §8
For experiment [6], the system named is Rec-1 cells. The experiment is described as follows: Cell cycle analysis (PI, Muse flow cytometer). Format: cell-based, human. Particulars: Rec-1, 6 MBq/mL, at 24 h. How it is done: as §6, §7, §8

Read-outs that look alike come from different tables or passages of the source.

For the molecule `Nc1nc(Nc2ccc(S(N)(=O)=O)cc2)nn1C(=O)c1c(F)cccc1F` [JNJ-7706621], the viability at 0.1 µM in experiment [1] (drug 100 nM, +Betalutin, Dy3) stood at 13%; in experiment [1] (drug 100 nM, +Betalutin, Dy4), 8%; in experiment [1] (drug 100 nM, +Betalutin, Dy5) it was 4%; in experiment [1] (drug 100 nM, +Betalutin, Dy6), 4%; in experiment [1] (drug 100 nM, −Betalutin, Dy3), 89%; in experiment [1] (drug 100 nM, −Betalutin, Dy4) it was 82%. The viability at 0.1 µM in experiment [1] (drug 100 nM, −Betalutin, Dy5) is 99%; in experiment [1] (drug 100 nM, −Betalutin, Dy6), 89%; in experiment [2] ((+)Betalutin, Dy3) it was 83%; in experiment [2] ((+)Betalutin, Dy4) it was 82%; in experiment [2] ((+)Betalutin, Dy5), 73%; in experiment [2] ((+)Betalutin, Dy6) it was 72%. Further, the viability at 0.1 µM came out at 90% in experiment [2] ((−)Betalutin, Dy3); 91% in experiment [2] ((−)Betalutin, Dy4); 107% in experiment [2] ((−)Betalutin, Dy5); 116% in experiment [2] ((−)Betalutin, Dy6). In addition, the viability at 1 µM in experiment [1] (drug 1 μM, +Betalutin, Dy3) stood at 29%; in experiment [1] (drug 1 μM, +Betalutin, Dy4), 13%; in experiment [1] (drug 1 μM, +Betalutin, Dy5) it was 4%; in experiment [1] (drug 1 μM, +Betalutin, Dy6) it was 3%; in experiment [1] (drug 1 μM, −Betalutin, Dy3) it was 50%; in experiment [1] (drug 1 μM, −Betalutin, Dy4), 31%. Also, the viability at 1 µM came to 17% in experiment [1] (drug 1 μM, −Betalutin, Dy5); 14% in experiment [1] (drug 1 μM, −Betalutin, Dy6); 39% in experiment [2] ((+)Betalutin, Dy3); 26% in experiment [2] ((+)Betalutin, Dy4); 16% in experiment [2] ((+)Betalutin, Dy5); 11% in experiment [2] ((+)Betalutin, Dy6). For the same molecule, the viability at 1 µM in experiment [2] ((−)Betalutin, Dy3) was 53%; in experiment [2] ((−)Betalutin, Dy4), 36%; in experiment [2] ((−)Betalutin, Dy5) it was 25%; in experiment [2] ((−)Betalutin, Dy6) it was 20%. In addition, the “Synergy for the combination with Betalutin” value in experiment [1] (drug 100 nM) is “Bliss + Z-score”; in experiment [1] (drug 1 μM) it was “Z-score”; in experiment [2] (U2932, drug 100 nM), “Bliss”.

B1: Lutetium-177 [^177Lu]-lilotomab satetraxetan (conjugate, chains of the INN, looked up)
VH: EIQLQQSGPELVKPGASVKVSCKASGYSFTDYNMYWVKQSHGKSLEWIGYIDPYNGDTTYNQKFKGKATLTVDKSSSTAFIHLNSLTSEDSAVYYCARSPYGHYAMDYWGQGTSVTVSS
VL: DIVMTQSHKLLSTSVGDRVSITCKASQDVSTAVDWYQQKPGQSPKLLINWASTRHTGVPDRFTGSGSGTDYTLTISSMQAEDLALYYCRQHYSTPFTFGSGTKLEIK
modifications: 177Lu satetraxetan chelator conjugate
With B1, in experiment [3] (p=0.0062), the Median survival result is listed as “significantly improved”. In addition, the Tumor growth delay entry in experiment [3] (p=0.015) is recorded as “significantly improved”. In addition, the figures for the “Proportion of cells showing a G2/M cell cycle arrest” value in experiment [4], in experiment [5] and in experiment [6] were 45±11%, 64±16% and 44±11%, respectively.
